Source: patent publication US6603023B2 (priority 1996, dated 2003)
Several values for one entry are separate records, joined by “and”; a condition that tells them apart may be missing. Equal values may be shown once. Entries after “also recorded” stand apart in the source; their conditions may differ. Read-outs that look alike come from different tables or passages of the source. Marks after values point to notes of the source that are not given here.

Test system: human mammary carcinoma MX-1 xenograft
Set-up: Toxicity toward Nude Mice: key to the marks not given beside the values
Conditions: for Toxicity toward Nude Mice: based on body weight decrease or lethality; for Therapeutic Effect against MX-1 Xenograft: based on tumor volume reduction vs untreated control
Protocol: DMSO was used as a vehicle for epothilones. Each mouse received ≦40 μL DMSO in all experiments.
Athymic nude mice (nu/nu) were used for MX-1 and MCF-7/Adr human mammary carcinoma xenografts. Mice were obtained from Taconic Laboratory Animals and Service (Germantown, N.Y.: outbred, Swiss background).

[1] = 40 mg/kg i.p. d18-26, extended after d8-16, day 22
[2] = 40 mg/kg i.p. d18-26, extended after d8-16, day 24
[3] = 40 mg/kg i.p. d18-26, extended after d8-16, day 26
[4] = 40 mg/kg i.p. d18-26, extended after d8-16, day 28
[5] = dEpo B 15 mg/kg i.v. Q2Dx5 from day 9
[6] = dEpo B 15 mg/kg i.v. Q2Dx5 from day 9, day 13
[7] = dEpo B 15 mg/kg i.v. Q2Dx5 from day 9, day 15
[8] = dEpo B 15 mg/kg i.v. Q2Dx5 from day 9, day 17
[9] = dEpo B 15 mg/kg i.v. Q2Dx5 from day 9, day 19
[10] = i.p., Cremophor-EtOH, 15 mg/kg Q2D x 5 (dose of dEpoB)
[11] = i.p., DMSO, 35 mg/kg Q2D x 5 (dose of dEpoB)
[12] = i.v. infusion 6 hr, Cremophor-EtOH, 30 mg/kg Q2D x 5 (dose of dEpoB)
[13] = i.v. infusion 24 hr, Cremophor-EtOH, 60 mg/kg Q4D x 2 (dose of dEpoB)
[14] = i.v. injection, DMSO, 15 mg/kg Q2D x 5 (dose of dEpoB)
[15] = i.v. injection, DMSO, 24 mg/kg Q2D x 5 (dose of dEpoB)

C/C1=C/C[C@@H](/C(C)=C/c2csc(C)n2)OC(=O)C[C@H](O)C(C)(C)C(=O)[C@H](C)[C@@H](O)[C@@H](C)CCC1 [Desoxyepothilone B, desoxyepothilone B]
Tumor Disappearance (40 mg/kg i.p. d18-26, extended after d8-16, day 20): 2/10^b | Average Body Weight Change [1]: -2.4 g | Tumor Disappearance [1]: 2/10 | Average Body Weight Change [2]: -2.4 g | Tumor Disappearance [2]: 3/10 | Average Body Weight Change [3]: -1.4 g | Tumor Disappearance [3]: 5/10 | Average Body Weight Change [4]: -1.2 g | Tumor Disappearance [4]: 5/10 | lethality and body weight (15 and 25 mg/kg i.p. days 7-15): no lethality nor body weight reduction | therapeutic outcome (25-40 mg/kg, Q2Dx5, i.p.): marked tumor regression and cures | therapeutic outcome (6 hr i.v. infusion): full cure | Toxicity Death [5]: 4/6^b | Tumor Disapp. [5]: 0/6 | Average Body Weight Change [6]: 0 g | Average Tumor Size (T/C) [6]: 0.47 | Average Body Weight Change [7]: -0.6 g | Average Tumor Size (T/C) [7]: 0.30 | Average Body Weight Change [8]: -1.1 g | Average Tumor Size (T/C) [8]: 0.10 | Average Body Weight Change [9]: -2.6 g | Average Tumor Size (T/C) [9]: 0.04 | tumor size treated/control (dEpoB 35 mg/kg i.p. Q2Dx5, day 19): 0.02 | mice with tumor disappearing on day 28 (or day 31) (extended 40 mg/kg i.p. every other day from day 18, 5 more doses): 5 out of 10 | Average Tumor Disappearance Duration (extended experiment, Desoxyepo B 40 mg/kg i.p., in 5/10 mice): 44 (5/10) Day | Toxicity toward Nude Mice [10]: +++++ | Therapeutic Effect against MX-1 Xenograft [10]: + | Toxicity toward Nude Mice [11]: ++ | Therapeutic Effect against MX-1 Xenograft [11]: +++++ | Toxicity toward Nude Mice [12]: ++ | Therapeutic Effect against MX-1 Xenograft [12]: +++++ | Toxicity toward Nude Mice [13]: +++ | Therapeutic Effect against MX-1 Xenograft [13]: +++++ | Toxicity toward Nude Mice [14]: +++ | Therapeutic Effect against MX-1 Xenograft [14]: ++ | Toxicity toward Nude Mice [15]: +++ | Therapeutic Effect against MX-1 Xenograft [15]: ++ | # Died of toxicity (mouse, in vivo): 0/10 | Average Body Weight (change), Day 14 (mouse, in vivo): -2.7 g | Average Body Weight (change), Day 16 (mouse, in vivo): -4.0 g | Average Body Weight (change), Day 18 (mouse, in vivo): -4.5 g | Average Body Weight (change), Day 20 (mouse, in vivo): -6.8 g | Average Body Weight Change, Day 20 (mouse, in vivo): -1.7 g | Average Body Weight Change, Day 22 (mouse, in vivo): -2.4 g | Average Body Weight Change, Day 24 (mouse, in vivo): -2.4 g | Average Body Weight Change, Day 26 (mouse, in vivo): -1.4 g | Average Body Weight Change, Day 28 (mouse, in vivo): -1.2 g | Average Tumor Size (T/C), Day 14 (mouse, in vivo): 0.19 T/C | Average Tumor Size (T/C), Day 16 (mouse, in vivo): 0.10 T/C | Average Tumor Size (T/C), Day 18 (mouse, in vivo): 0.03 T/C | Died (mouse, in vivo): 0/10 | Lowest Average Tumor Size (T/C) (mouse, in vivo): 0 T/C | Therapeutic Effects dEpoB vs Taxol (mouse, in vivo): ≅ | Tumor Disappearance (mouse, in vivo): 3/3 and 5/5 | Tumor Disappearance, Day 20 (mouse, in vivo): 2.10^b | Tumor Disappearance, Day 22 (mouse, in vivo): 2/10 | Tumor Disappearance, Day 24 (mouse, in vivo): 3/10 | Tumor Disappearance, Day 26 (mouse, in vivo): 5/10 | Tumor Disappearance, Day 28 (mouse, in vivo): 5/10 | Therapeutic effect Rank Order (mouse, in vivo, ip): dEpoB > Camptothecin >; also recorded: dEpoB > Adriamycin > Taxol ® | Therapeutic effect Rank Order (mouse, in vivo, iv): Taxol ® ≈ dEpoB | Tumor Size, individual mice, Day 60 (surviving mice 4, 5, 9, 35 mg/kg on day 8-16, 40 mg/kg on day 18-26, then no treatment): 0 mm^3 (2×) and 4 mm^3
